Series [1] can be described thus: Toxicity observation during 10 weeks of treatment in mice. It is filed as in vivo. The protocol: Animals. Cxxc5^−/− mice were established in a previous study. See e.g., Kim H. Y. et al. (2015), CXXC5 is a negative feedback regulator of the Wnt/beta-catenin pathway involved in osteoblast differentiation. CELL DEATH DIFFER 22: 912-920. To manipulate growth plate senescence by estrogen, 3-week-old […] Cxxc5^−/− male mice received weekly intramuscular (i.m.) injections of either 70 μg/kg estradiol (E2) cypionate (Sigma-Aldrich) or vehicle (cottonseed oil) for 3 weeks. To investigate the effects of KY19382 treatment on longitudinal bone growth, C57BL/6 male mice were purchased from KOATECH (Gyeonggido, Korea). KY19382 (0.1 ing/kg) was administered daily by intraperitoneal (i.p.) injection to 3- and 7-week-old mice for 2 weeks or to 3-week-old mice for 10 weeks. For BrdU labeling experiments, mice were i.p. injected with 50 mg/kg BrdU (Sigma-Aldrich) before 24 hours to sacrifice. […]
Radiographic and histochemical analyses. […] For fluorescence staining, the sections were incubated with primary antibody at 4° C. overnight, followed by incubation with anti-mouse Alexa Fluor 488 (ThermoFisher Scientific, A11008; 1:200) or anti-rabbit Alex Fluor 555 (ThermoFisher Scientific, A21428; 1:200) secondary antibodies at room temperature for 1 hour. […]

The test system of series [2] is TOPFlash Wnt reporter activity. In words: TOPFlash Wnt reporter assay in HEK293-TOP cells. It is filed as cell-based. As to conditions: 18 hours, FIG. 4D. The protocol: Reporter assay. HEK293-TOP cells were seeded into each well of a 24-well plate. The cells were treated with individual compounds at indicated concentration and cultured for 18 hours. The cells were then harvested and lysed in 60 μl of Reporter Lysis Buffer (Promega, Madison, Wis.) according to the manufacturer's instructions. After centrifugation, 20 μl of the supernatant was used to measure luciferase activity. Relative luciferase activities were normalized to that of the DMSO-treated control.
In general terms: In a reporter assay the amount or activity of a reporter protein is the signal.

Turning to `CO/N=C1/C(=C2/C(=O)Nc3cc(Cl)c(Cl)cc32)Nc2ccccc21` [KY19382, 5,6-dichloroindirubin-3′-methoxime], the “histological abnormalities in articular cartilage and liver tissues” value in series [1] (0.1 mg/kg daily for 10 weeks) is on record as “no histological abnormalities”. Further, the weight during treatment entry in series [1] (0.1 mg/kg daily, 10 weeks of treatment, vs vehicle) is “no difference”. Further, the “TOPFlash Wnt reporter activity” value in series [2] is on record as “strong enhancement”.

These data come from patent US20210323918A1, “COMPOSITIONS AND METHODS FOR SUPPRESSING AND/OR TREATING A GROWTH RELATED DISEASE AND/OR A CLINICAL CONDITION THEREOF” (CK Biotech Inc., priority 2018, published 2021).
